Data from patent US20100234351A1, “FUSED NITROGEN-COMPRISING HETEROCYCLIC COMPOUND” (TAKEDA PHARMACEUTICAL COMPANY LIMITED, priority 2006, published 2010).
Counter-ions that a name gives are not always drawn.

Biological target: T1, HER2 intracellular domain (Homo sapiens, UniProt P04626)
T1 construct: made in house; host or cells: SF-21 insect cells infected with recombinant baculovirus BAC-HER2
Test: Measurement of HER2 kinase inhibitory activity
Assay type: biochemical
Conditions: compound 1.0 μM, poly-Glu:Tyr (4:1) substrate, [γ-32P]ATP, read-out: Inhibitory rate (%) at 1.0 μM
Method: Human HER2 gene was cloned by RT-PCR using total RNA prepared from MCF7 cells as a template. The primer used for RT-PCR was prepared from base sequence (Genbank Accession No. M11730) information of HER2 gene, adding base sequence encoding DYKDDDD peptide and a restriction enzyme recognition sequence to a nucleotide sequence (2176-3918 of Genbank Accession No. M11730 as a base, and corresponding to 676-1255 amino acid of Genbank Accession No. NP_004439 as a protein) encoding the HER2 intracellular domain region, so that a DYKDDDD peptide tag would be attached to the N-terminus of the protein. The base sequence of the primer is shown in below.
The RT reaction was performed using Superscript First-Strand Synthesis System for RT-PCR (Invitrogen) and the PCR reaction was performed using KOD-plus kit (TOYOBO). The obtained PCR product was electrophoresed on agarose gel (1%), and the DNA fragment amplified by PCR was recovered from the gel, and then digested with restriction enzymes Sal I and Sph I. The DNA treated with the restriction enzymes was electrophoresed on agarose gel (1%), and the obtained DNA fragment was recovered and ligated to plasmid pFASTBAC1 (Invitrogen) digested with restriction enzymes Sal I and Sph I to give expression plasmid pFB-HER2. The base sequence of the inserted fragment was confirmed and found to be identical with the base sequence of HER2 intracellular domain (2176-3918 of Genbank Accession M11730). Furthermore, using BAC-TO-BAC Baculovirus Expression System (Invitrogen), recombinant baculovirus BAC-HER2 was prepared.
SF-21 cells were sown at 1×10^6 cells/mL to 1 L of Sf-900II SFM medium (Invitrogen) containing 10% fetal calf serum (trace), 50 mg/L gentamicin (Invitrogen) and 0.1% Pluronic F-68 (Invitrogen), and cultured with shaking in 2 L volume Erlenmeyer flask at 27° C., 100 rpm. After culturing for 24 hr, recombinant baculovirus BAC-HER2 (13.4 mL) was added thereto, and the cells were further cultured for 3 days. The culture medium was centrifuged at 2,000 rpm for 5 min to give virus-infected cells. The infected cells were washed with phosphate buffered saline (Invitrogen), centrifuged under the same conditions, and preserved at −80° C. The cryopreserved cells were thawed in ice and suspended in buffer A (50 mM Tris buffer (30 mL, pH 7.4) containing 20% glycerol, 0.15 M NaCl) supplemented with Complete Protease Inhibitor (Boehringer). The cells were ruptured 3 times with a Polytron homogenizer (Kinematica) at 20,000 rpm for 30 sec. The disrupt was clarified by centrifugation at 40,000 rpm for 30 min and filtered with a 0.45 μm filter. The filtrate was passed through a column packed with Anti-FLAG M2 Affinity Gel (4 mL, Sigma Aldrich CO.) at a flow rate of about 0.5 mL/min. The column was washed with buffer A, and eluted with buffer A containing 100 μg/mL of FLAG peptide. The eluate was concentrated with Vivaspin 20 (Vivascience) having a molecular weight cut off of 30K. The concentrate was purified by gel filtration using Hi-Load 16/60 Superdex 200pg (GE Healthcare Bioscience) equilibrated with buffer A. The fractions containing HER2 intracellular domain were collected and cryopreserved at −80° C.
HER2 kinase reaction was carried out using 96-well plate. As a buffer for Kinase reaction, a buffer of a composition of 50 mM Tris-HCl (pH 7.5), 5 mM MnCl2, 2 mM dithiothreitol and 0.01% Tween-20 was used. The compound of the present invention was dissolved in dimethyl sulfoxide (DMSO), and diluted with a buffer for kinase reaction so that the DMSO concentration would become 0.1% during kinase reaction. The compound solution (10 μL) was mixed with a buffer for kinase reaction (20 μL) containing the HER2 intracellular domain (0.625 μg/mL) obtained in Experimental Example 1B and a polypeptide substrate poly-Glu:Tyr (4:1) (12.5 μg/mL, Sigma Ltd.) and the mixture was stood for 5 min at room temperature. […]

T1 sequence (P04626 676-1255): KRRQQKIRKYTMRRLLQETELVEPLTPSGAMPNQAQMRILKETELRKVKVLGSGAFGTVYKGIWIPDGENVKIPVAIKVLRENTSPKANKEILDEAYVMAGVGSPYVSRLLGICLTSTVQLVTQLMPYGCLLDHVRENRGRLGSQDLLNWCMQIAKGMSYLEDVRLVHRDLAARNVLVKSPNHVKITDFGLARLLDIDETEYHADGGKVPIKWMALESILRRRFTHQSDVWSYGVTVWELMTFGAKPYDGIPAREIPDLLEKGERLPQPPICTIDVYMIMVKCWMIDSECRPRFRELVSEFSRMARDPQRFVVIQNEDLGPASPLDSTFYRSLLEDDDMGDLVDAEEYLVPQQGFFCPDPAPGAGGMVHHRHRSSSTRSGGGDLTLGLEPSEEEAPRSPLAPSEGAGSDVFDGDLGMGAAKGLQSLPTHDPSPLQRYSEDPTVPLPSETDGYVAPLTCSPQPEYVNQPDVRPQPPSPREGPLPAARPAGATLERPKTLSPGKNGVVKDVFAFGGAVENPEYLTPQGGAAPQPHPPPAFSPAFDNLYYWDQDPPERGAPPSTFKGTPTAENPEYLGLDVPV

Compound	inhibition at 1 µM [%]
COC(=O)C1=Cc2c(ncnc2Nc2ccc(Oc3cccc(C(=O)NC(C)(C)C)c3)c(Cl)c2)NCC1 [Example 135, methyl 4-[(4-{3-[(tert-butylamino)carbonyl]phenoxy}-3-chlorophenyl)amino]-8,9-dihydro-7H-pyrimido[4,5-b]azepine-6-carboxylate]	97
CC(C)(C)OC(=O)N1CCC(Oc2ccc(Nc3ncnc4c3C=C(CO)CCN4)cc2Cl)CC1 [Example 146, tert-butyl 4-(2-chloro-4-{[6-(hydroxymethyl)-8,9-dihydro-7H-pyrimido[4,5-b]azepin-4-yl]amino}phenoxy)piperidine-1-carboxylate]	92
CC(C)(CS(=O)(=O)CCO)NC(=O)C1=Cc2c(ncnc2Nc2ccc(Oc3cccc(C(F)(F)F)c3)c(Cl)c2)NCC1 [Example 172, 4-({3-chloro-4-[3-(trifluoromethyl)phenoxy]phenyl}amino)-N-{2-[(2-hydroxyethyl)sulfonyl]-1,1-dimethylethyl}-8,9-dihydro-7H-pyrimido[4,5-b]azepine-6-carboxamide]	95
CC(C)(C)NC(=O)c1cccc(Oc2ccc(Nc3ncnc4c3C=C(CNC(C)(C)CS(=O)(=O)CCO)CCN4)cc2Cl)c1 [Example 214, N-(tert-butyl)-3-[2-chloro-4-({6-[({2-[(2-hydroxyethyl)sulfonyl]-1,1-dimethylethyl}amino)methyl]-8,9-dihydro-7H-pyrimido[4,5-b]azepin-4-yl}amino)phenoxy]benzamide dihydrochloride]	99
COC(=O)C1=Cc2c(ncnc2Nc2cnc(Oc3cccc(C(=O)NC(C)(C)C)c3)c(Cl)c2)NCC1 [Example 220, methyl 4-[(6-{3-[(tert-butylamino)carbonyl]phenoxy}-5-chloropyridin-3-yl)amino]-8,9-dihydro-7H-pyrimido[4,5-b]azepine-6-carboxylate]	96
CC(C)(CS(=O)(=O)CCO)NC(=O)C1=Cc2c(ncnc2Nc2ccc(Oc3cccc(S(=O)(=O)CC4CC4)c3)c(Cl)c2)NCC1 [Example 227, 4-[(3-chloro-4-{3-[(cyclopropylmethyl)sulfonyl]phenoxy}phenyl)amino]-N-{2-[(2-hydroxyethyl)sulfonyl]-1,1-dimethylethyl}-8,9-dihydro-7H-pyrimido[4,5-b]azepine-6-carboxamide]	93
CC(C)(C)NC(=O)c1cccc(Oc2ccc(Nc3ncnc4c3C=C(/C=N/OCCO)CCN4)cc2Cl)c1 [Example 231, N-(tert-butyl)-3-{2-chloro-4-[(6-{[(2-hydroxyethoxy)imino]methyl}-8,9-dihydro-7H-pyrimido[4,5-b]azepin-4-yl)amino]phenoxy}benzamide]	97
CC(C)(C)NC(=O)c1cccc(Oc2ccc(Nc3ncnc4c3C=C(CNCCF)CCN4)cc2Cl)c1 [Example 234, N-(tert-butyl)-3-{2-chloro-4-[(6-{[(2-fluoroethyl)amino]methyl}-8,9-dihydro-7H-pyrimido[4,5-b]azepin-4-yl)amino]phenoxy}benzamide]	98
CN(CCS(C)(=O)=O)CC1=Cc2c(ncnc2Nc2ccc(Oc3cccc(C(=O)NC(C)(C)C)c3)c(Cl)c2)NCC1 [Example 242, N-(tert-butyl)-3-(2-chloro-4-{[6-({methyl[2-(methylsulfonyl)ethyl]amino}methyl)-8,9-dihydro-7H-pyrimido[4,5-b]azepin-4-yl]amino}phenoxy)benzamide]	99
CCOC(=O)/C=C/C1=Cc2c(ncnc2Nc2ccc(Oc3cccc(C(=O)NC(C)(C)C)c3)c(Cl)c2)NCC1 [Example 246, ethyl (2E)-3-{4-[(4-{3-[(tert-butylamino)carbonyl]phenoxy}-3-chlorophenyl)amino]-8,9-dihydro-7H-pyrimido[4,5-b]azepin-6-yl}acrylate]	98
